As a reminder, the EC50 is the concentration that produces a half-maximal response. Broadly, the CC50 is the concentration at which the toxic effect on the cells reaches its halfway point.

Some results are limits rather than exact numbers.

Data set [1] in a line: Selectivity index, ratio of CC50 for human 293T/ACE2 cells to EC50 for SARS-CoV-2 Omicron. It is filed as toxicity. The settings on record: read-out: Ratio CC50/EC50.
The next data set concerns SARS-CoV-2. Description: Antiviral activity against luciferase-expressing pseudovirus encoding SARS-CoV-2 Omicron expressing S protein infected in human 293T/ACE2 cells assessed as reduction of viral growth measured after 48 hrs by luciferase assay. It is filed as functional, organism-based. The following applies: Severe acute respiratory syndrome coronavirus 2, 293T/ACE2, 48 h.

Data set [2] in a line: Cytotoxicity against human 293T/ACE2 cells assessed as reduction in cell growth measured after 48 hrs by MTT assay. It is filed as functional. (In general: Tetrazolium assays rely on reduction of a dye to a coloured formazan, in cell work by metabolically active cells.)

Take `C=C(C)[C@@H]1CC[C@]2(C(=O)OC)CC[C@]3(C)[C@H](CC[C@@H]4[C@@]5(C)CC[C@H](O[C@@H]6O[C@H](CO)[C@@H](O[C@@H]7O[C@@H](C)[C@H](O)[C@@H](O)[C@H]7O)[C@H](O)[C@H]6O[C@@H]6O[C@@H](C)[C@H](O)[C@@H](O)[C@H]6O)C(C)(C)[C@@H]5CC[C@]43C)[C@@H]12`: the selectivity ratio in data set [1] stood at 5.8. For the same compound, the EC50 with SARS-CoV-2 came out at 7.04 µM. In data set [2], the CC50 was found to be 40.9 µM.

Consider `O=C(/C=C/c1ccc(O)c2oc(-c3ccc(O)c(O)c3)cc12)O[C@H](Cc1ccc(O)c(O)c1)C(=O)O`, for which the selectivity ratio in data set [1] is more than 17.8. The EC50 with SARS-CoV-2 amounted to 5.63 µM. In addition, the CC50 in data set [2] is more than 100 µM.

In the case of `C=C(C)[C@@H]1CC[C@]2(C(=O)NCc3ccccc3)CC[C@]3(C)[C@H](CC[C@@H]4[C@@]5(C)CC[C@H](O[C@@H]6O[C@H](CO)[C@@H](O[C@@H]7O[C@@H](C)[C@H](O)[C@@H](O)[C@H]7O)[C@H](O)[C@H]6O[C@@H]6O[C@@H](C)[C@H](O)[C@@H](O)[C@H]6O)C(C)(C)[C@@H]5CC[C@]43C)[C@@H]12`, the selectivity ratio in data set [1] turned out to be 44.9. Further, in the data set with SARS-CoV-2, the concentration giving a half-maximal response (EC50) stood at 5.52 µM. For the same compound, the CC50 in data set [2] is 248 µM.

Regarding `C=C(C)[C@@H]1CC[C@]2(C(=O)NCc3ccc(Cl)cc3)CC[C@]3(C)[C@H](CC[C@@H]4[C@@]5(C)CC[C@H](O[C@@H]6O[C@H](CO)[C@@H](O[C@@H]7O[C@@H](C)[C@H](O)[C@@H](O)[C@H]7O)[C@H](O)[C@H]6O[C@@H]6O[C@@H](C)[C@H](O)[C@@H](O)[C@H]6O)C(C)(C)[C@@H]5CC[C@]43C)[C@@H]12`, the EC50 in the data set on SARS-CoV-2 was more than 20 µM.

Consider `C=C(C)[C@@H]1CC[C@]2(C(=O)NNc3ccccc3)CC[C@]3(C)[C@H](CC[C@@H]4[C@@]5(C)CC[C@H](O[C@@H]6O[C@H](CO)[C@@H](O[C@@H]7O[C@@H](C)[C@H](O)[C@@H](O)[C@H]7O)[C@H](O)[C@H]6O[C@@H]6O[C@@H](C)[C@H](O)[C@@H](O)[C@H]6O)C(C)(C)[C@@H]5CC[C@]43C)[C@@H]12`, for which the EC50 with SARS-CoV-2 was more than 20 µM.

For the compound `C=C(C)[C@@H]1CC[C@]2(C(=O)NNCc3ccccc3)CC[C@]3(C)[C@H](CC[C@@H]4[C@@]5(C)CC[C@H](O[C@@H]6O[C@H](CO)[C@@H](O[C@@H]7O[C@@H](C)[C@H](O)[C@@H](O)[C@H]7O)[C@H](O)[C@H]6O[C@@H]6O[C@@H](C)[C@H](O)[C@@H](O)[C@H]6O)C(C)(C)[C@@H]5CC[C@]43C)[C@@H]12`, the EC50 in the data set on SARS-CoV-2 was more than 20 µM.

With `C=C(C)[C@@H]1CC[C@]2(C(=O)Nc3ccccc3Cl)CC[C@]3(C)[C@H](CC[C@@H]4[C@@]5(C)CC[C@H](O[C@@H]6O[C@H](CO)[C@@H](O[C@@H]7O[C@@H](C)[C@H](O)[C@@H](O)[C@H]7O)[C@H](O)[C@H]6O[C@@H]6O[C@@H](C)[C@H](O)[C@@H](O)[C@H]6O)C(C)(C)[C@@H]5CC[C@]43C)[C@@H]12`, in data set [1], the selectivity ratio worked out at 8.7. Also, the EC50 in the data set with SARS-CoV-2 worked out at 5.41 µM. Also, the cytotoxic concentration (CC50) in data set [2] came to 47.1 µM.

Consider `C=C(C)[C@@H]1CC[C@]2(C(=O)Nc3cccc(OC)c3)CC[C@]3(C)[C@H](CC[C@@H]4[C@@]5(C)CC[C@H](O[C@@H]6O[C@H](CO)[C@@H](O[C@@H]7O[C@@H](C)[C@H](O)[C@@H](O)[C@H]7O)[C@H](O)[C@H]6O[C@@H]6O[C@@H](C)[C@H](O)[C@@H](O)[C@H]6O)C(C)(C)[C@@H]5CC[C@]43C)[C@@H]12`, for which, in data set [1], the selectivity ratio was 26.9. Besides, the EC50 in the data set on SARS-CoV-2 was 2.73 µM. Moreover, in data set [2], the CC50 amounted to 73.3 µM.

Take `C=C(C)[C@@H]1CC[C@]2(C(=O)NCc3ccc(-c4ccccc4)cc3)CC[C@]3(C)[C@H](CC[C@@H]4[C@@]5(C)CC[C@H](O[C@@H]6O[C@H](CO)[C@@H](O[C@@H]7O[C@@H](C)[C@H](O)[C@@H](O)[C@H]7O)[C@H](O)[C@H]6O[C@@H]6O[C@@H](C)[C@H](O)[C@@H](O)[C@H]6O)C(C)(C)[C@@H]5CC[C@]43C)[C@@H]12`: the EC50 in the data set on SARS-CoV-2 was more than 20 µM.

Consider `C=C(C)[C@@H]1CC[C@]2(C(=O)NCc3cccc(Cl)c3)CC[C@]3(C)[C@H](CC[C@@H]4[C@@]5(C)CC[C@H](O[C@@H]6O[C@H](CO)[C@@H](O[C@@H]7O[C@@H](C)[C@H](O)[C@@H](O)[C@H]7O)[C@H](O)[C@H]6O[C@@H]6O[C@@H](C)[C@H](O)[C@@H](O)[C@H]6O)C(C)(C)[C@@H]5CC[C@]43C)[C@@H]12`, for which the EC50 in the data set with SARS-CoV-2 is more than 20 µM.

In the case of `C=C(C)[C@@H]1CC[C@]2(C(=O)Nc3ccc(OC)cc3)CC[C@]3(C)[C@H](CC[C@@H]4[C@@]5(C)CC[C@H](O[C@@H]6O[C@H](CO)[C@@H](O[C@@H]7O[C@@H](C)[C@H](O)[C@@H](O)[C@H]7O)[C@H](O)[C@H]6O[C@@H]6O[C@@H](C)[C@H](O)[C@@H](O)[C@H]6O)C(C)(C)[C@@H]5CC[C@]43C)[C@@H]12`, the selectivity ratio in data set [1] was 18.9. In addition, the EC50 in the data set on SARS-CoV-2 turned out to be 9.44 µM. Also, in data set [2], the 50% cytotoxic concentration (CC50) was found to be 178 µM.

On to `C=C(C)[C@@H]1CC[C@]2(C(=O)NCc3cccs3)CC[C@]3(C)[C@H](CC[C@@H]4[C@@]5(C)CC[C@H](O[C@@H]6O[C@H](CO)[C@@H](O[C@@H]7O[C@@H](C)[C@H](O)[C@@H](O)[C@H]7O)[C@H](O)[C@H]6O[C@@H]6O[C@@H](C)[C@H](O)[C@@H](O)[C@H]6O)C(C)(C)[C@@H]5CC[C@]43C)[C@@H]12`, for which the selectivity ratio in data set [1] came to 6.81. Also, the EC50 in the data set on SARS-CoV-2 was found to be 6.15 µM. Further, the CC50 in data set [2] amounted to 41.9 µM.

As to `C=C(C)[C@@H]1CC[C@]2(C(=O)Nc3ccc4sccc4c3)CC[C@]3(C)[C@H](CC[C@@H]4[C@@]5(C)CC[C@H](O[C@@H]6O[C@H](CO)[C@@H](O[C@@H]7O[C@@H](C)[C@H](O)[C@@H](O)[C@H]7O)[C@H](O)[C@H]6O[C@@H]6O[C@@H](C)[C@H](O)[C@@H](O)[C@H]6O)C(C)(C)[C@@H]5CC[C@]43C)[C@@H]12`, the half-maximal effective concentration (EC50) in the data set on SARS-CoV-2 is more than 20 µM.

On to `C=C(C)[C@@H]1CC[C@]2(C(=O)NCc3ccccc3Cl)CC[C@]3(C)[C@H](CC[C@@H]4[C@@]5(C)CC[C@H](O[C@@H]6O[C@H](CO)[C@@H](O[C@@H]7O[C@@H](C)[C@H](O)[C@@H](O)[C@H]7O)[C@H](O)[C@H]6O[C@@H]6O[C@@H](C)[C@H](O)[C@@H](O)[C@H]6O)C(C)(C)[C@@H]5CC[C@]43C)[C@@H]12`, for which the EC50 with SARS-CoV-2 was more than 20 µM.

On to `C=C(C)[C@@H]1CC[C@]2(C(=O)NCc3ccc(OC)cc3)CC[C@]3(C)[C@H](CC[C@@H]4[C@@]5(C)CC[C@H](O[C@@H]6O[C@H](CO)[C@@H](O[C@@H]7O[C@@H](C)[C@H](O)[C@@H](O)[C@H]7O)[C@H](O)[C@H]6O[C@@H]6O[C@@H](C)[C@H](O)[C@@H](O)[C@H]6O)C(C)(C)[C@@H]5CC[C@]43C)[C@@H]12`, for which, in the data set with SARS-CoV-2, the EC50 is more than 20 µM.

Take `C=C(C)[C@@H]1CC[C@]2(C(=O)NCC3CCCCC3)CC[C@]3(C)[C@H](CC[C@@H]4[C@@]5(C)CC[C@H](O[C@@H]6O[C@H](CO)[C@@H](O[C@@H]7O[C@@H](C)[C@H](O)[C@@H](O)[C@H]7O)[C@H](O)[C@H]6O[C@@H]6O[C@@H](C)[C@H](O)[C@@H](O)[C@H]6O)C(C)(C)[C@@H]5CC[C@]43C)[C@@H]12`: the EC50 with SARS-CoV-2 is more than 20 µM.

With `C=C(C)[C@@H]1CC[C@]2(C(=O)Nc3cccc(Cl)c3)CC[C@]3(C)[C@H](CC[C@@H]4[C@@]5(C)CC[C@H](O[C@@H]6O[C@H](CO)[C@@H](O[C@@H]7O[C@@H](C)[C@H](O)[C@@H](O)[C@H]7O)[C@H](O)[C@H]6O[C@@H]6O[C@@H](C)[C@H](O)[C@@H](O)[C@H]6O)C(C)(C)[C@@H]5CC[C@]43C)[C@@H]12`, the selectivity ratio in data set [1] was 8.51. For the same compound, in the data set on SARS-CoV-2, the EC50 is 6.63 µM. Further, the CC50 in data set [2] was 56.4 µM.

With `C=C(C)[C@@H]1CC[C@]2(C(=O)Nc3ccc4c(cnn4C)c3)CC[C@]3(C)[C@H](CC[C@@H]4[C@@]5(C)CC[C@H](O[C@@H]6O[C@H](CO)[C@@H](O[C@@H]7O[C@@H](C)[C@H](O)[C@@H](O)[C@H]7O)[C@H](O)[C@H]6O[C@@H]6O[C@@H](C)[C@H](O)[C@@H](O)[C@H]6O)C(C)(C)[C@@H]5CC[C@]43C)[C@@H]12`, the EC50 in the data set on SARS-CoV-2 is more than 20 µM.

On to `C=C(C)[C@@H]1CC[C@]2(C(=O)NCc3ccco3)CC[C@]3(C)[C@H](CC[C@@H]4[C@@]5(C)CC[C@H](O[C@@H]6O[C@H](CO)[C@@H](O[C@@H]7O[C@@H](C)[C@H](O)[C@@H](O)[C@H]7O)[C@H](O)[C@H]6O[C@@H]6O[C@@H](C)[C@H](O)[C@@H](O)[C@H]6O)C(C)(C)[C@@H]5CC[C@]43C)[C@@H]12`, for which the EC50 in the data set on SARS-CoV-2 was more than 20 µM.

As to `C=C(C)[C@@H]1CC[C@]2(C(=O)NCc3ccccc3OC)CC[C@]3(C)[C@H](CC[C@@H]4[C@@]5(C)CC[C@H](O[C@@H]6O[C@H](CO)[C@@H](O[C@@H]7O[C@@H](C)[C@H](O)[C@@H](O)[C@H]7O)[C@H](O)[C@H]6O[C@@H]6O[C@@H](C)[C@H](O)[C@@H](O)[C@H]6O)C(C)(C)[C@@H]5CC[C@]43C)[C@@H]12`, in the data set with SARS-CoV-2, the EC50 is more than 20 µM.

Consider `C=C(C)[C@@H]1CC[C@]2(C(=O)NCc3cccc(OC)c3)CC[C@]3(C)[C@H](CC[C@@H]4[C@@]5(C)CC[C@H](O[C@@H]6O[C@H](CO)[C@@H](O[C@@H]7O[C@@H](C)[C@H](O)[C@@H](O)[C@H]7O)[C@H](O)[C@H]6O[C@@H]6O[C@@H](C)[C@H](O)[C@@H](O)[C@H]6O)C(C)(C)[C@@H]5CC[C@]43C)[C@@H]12`, for which the EC50 in the data set with SARS-CoV-2 is more than 20 µM.

Source of the values: ChEMBL document CHEMBL5370556, “Optimization, and biological evaluation of 3-O-β-chacotriosyl betulinic acid amide derivatives as novel small-molecule Omicron” (Eur J Med Chem, 2023).
